Data as given in US6552192B1, “Substituted nitrogen heterocyclic derivatives and pharmaceutical use thereof” (Ustau Experimentalni Botaniky AV-CR, priority 1999, dated 2003).
Read-outs that look alike come from different tables or passages of the source.

Experiments:
CDC2 (p34^cdc2) = target: T1, CDC2 (p34^cdc2) (Homo sapiens, UniProt P06493); assay: CDK inhibition assay, p34cdc2 kinase (histone H1 phosphorylation); assay type: biochemical; conditions: 1 mg/ml histone H1, 15 μM ATP
T1 construct: made in house; host or cells: Sf9 insect cells (baculovirus co-infection)
Method: Cyclin-dependent kinases (p34^cdc2, p33^cdk2, p33^cdk4) and cyclins (cyclin B, E and D1) are produced in Sf9 insect cells coinfected with appropriate baculoviral constructs. The cells are harvested 68-72 hrs post infection in lysis buffer for 30 min on ice and the soluble fraction is recovered by centrifugation at 14.000 g for 10 min. The protein extract is stored at −80° C.
Lysis buffer: 50 mM Tris pH 7,4, 150 mM NaCl, 5 mM EDTA, 20 mM NaF, 1% Tween, 1 mM DTT, 0.1 mM PMSF, leupeptine, aprotomine
To carry out experiments on kinetics under linear conditions, the final point test system for kinase activity measurement is used. The kinase is added to reaction mixture in such a way as to obtain linear activity with respect to the concentration of enzyme and with respect to time.
Kinase activity is determined at 30° C. in the kinase buffer.
Tested compounds are usually dissolved to 100 mM solutions in DMSO, final concentration of DMSO in reaction mixture never exceeds 1%. The controls contain suitable dilutions of DMSO.
After 10 min, addition 3×SDS sample buffer stops the incubations. […] The measurement of kinase activity is done using digital image analysis.
The kinase activity is expressed as a percentage of maximum activity, the apparent inhibition constants are determined by graphic analysis. Kinase buffer: 50 mM Hepes pH 7.4, 10 mM MgCl2, 5 mM EGTA, 10 mM 2-glycerolphosphate, 1 mM NaF, 1 mM DTT

IκB-α = IκB-α kinase inhibition, in vitro kinase assay; assay type: biochemical
[1] = tested on: T-lymphoblastic leukemia cell line CEM; assay: In vitro cytotoxicity, MTT assay, CEM; assay type: cell-based; conditions: Homo sapiens, 72 hours
From the text: (§1) One of the parameters used, as the basis for colorimetric assays, is the metabolic activity of viable cells. For example, a microtiter assay, which uses the tetrazolium salt MTT, is now widely used to quantitate cell proliferation and cytotoxicity. For instance, this assay is used in drug screening programs and in chemosensitivity testing. Because only metabolically active cells cleave tetrazolium salts, these assays detect viable cells exclusively. In the case of MTT assay, yellow soluble tetrazolium salt is reduced to coloured water-insoluble formazan salt. After it is solubilized, the formazan formed can easily and rapidly be quantified in a conventional ELISA plate reader at 570 nm (maximum absorbance). The quantity of reduced formazan corresponds to number of vital cells in the culture.
(§2) The cells were maintained in Nunc/Corning 80 cm^2 plastic tissue culture flasks and cultured in cell culture medium (DMEM with 5 g/l glucose, 2 mM glutamine, 100 U/ml penicillin, 100 μg/ml streptomycin, 10% fetal calf serum and sodium bicarbonate).
(§3) The cell suspensions that were prepared and diluted according to the particular cell type and the expected target cell density (2.500-30.000 cells per well based on cell growth characteristics) were added by pipette (80 μl) into 96/well microtiter plates. Inoculates were allowed a pre-incubation period of 24 hours at 37° C. and 5% CO2 for stabilisation. Four-fold dilutions of the intended test concentration were added at time zero in 20 μl aliquots to the microtiter plate wells. Usually, test compound was evaluated at six 4-fold dilutions. […] All drug concentrations were examined in duplicates. Incubations of cells with the test compounds lasted for 72 hours at 37° C., in 5% CO2 atmosphere and 100% humidity. At the end of incubation period, the cells were assayed by using the MTT. Ten microliters of the MTT stock solution were pipetted into each well and incubated further for 1-4 hours. […] The optical density (OD) was measured at 540 nm with the Labsystem iEMS Reader MF (UK). The tumour cell survival (TCS) was calculated using the following equitation: TCS=(ODdrug exposed well/mean ODcontrol wells)×100%. The TCS50 value, the drug concentration lethal to 50% of the tumour cells, was calculated from the obtained dose response curves.

B16 melanoma = assay: In vitro cytotoxicity, MTT assay, B16; assay type: cell-based; conditions: Mus musculus, 72 hours
From the text: as §1, §2, §3

[2] = tested on: normal human lymphocytes, spontaneous proliferation; assay: Spontaneous proliferation of lymphocytes, 3H-thymidine incorporation; assay type: cell-based; conditions: Lymphocyte, 72 hours, unstimulated lymphocytes
Method: (§4) Human heparinized peripheral blood was obtained from healthy volunteers by cubital vein punction.
(§5) The cells were diluted at target density of 1.100.000 cells/ml were added by pipet (180 μl) into 96/well microtiter plates. Four-fold dilutions of the intended test concentration were added at time zero in 20 μl aliquots to the microtiter plate wells. Usually, test compound was evaluated at six 4-fold dilutions. […] Incubations of cells with test compounds lasted for 72 hours at 37° C., in 5% CO2 atmosphere and 100% humidity. At the end of incubation period, the cells were assayed by using the [^3H]-TdR:
(§6) Cell cultures were incubated with […] (20 μl of stock solution 500 μCi/ml) per well for 6 hours at 37° C. and 5% CO2. The automated cell harvester was used to lyse cells in water and adsorb the DNA onto glass-fiber filters in the format of microtiter plate. The DNA incorporated [^3H]-TdR was retained on the filter while unincorporated material passes through. The filters were dried at room temperature overnight, sealed into a sample bag with 10-12 ml of scintillant. The amount of [^3]H-TdR present in each filter (in CCPM) was determined by scintillation counting in a Betaplate liquid scintillation counter. The effective dose of immunosuppressant (ED) was calculated using the following equotation: ED=(CCPMdrug exposed well/mean CCPMcontrol wells)×100%.

[3] = tested on: normal human lymphocytes, mitogen activated proliferation; assay: Mitogen (concanavalin A) activated proliferation of lymphocytes, 3H-thymidine incorporation; assay type: cell-based; conditions: Lymphocyte, 72 hours
Method: as §4, §5, §6

[4] = unit nM printed beside the value

T1 sequence (P06493 whole entry, species assumed): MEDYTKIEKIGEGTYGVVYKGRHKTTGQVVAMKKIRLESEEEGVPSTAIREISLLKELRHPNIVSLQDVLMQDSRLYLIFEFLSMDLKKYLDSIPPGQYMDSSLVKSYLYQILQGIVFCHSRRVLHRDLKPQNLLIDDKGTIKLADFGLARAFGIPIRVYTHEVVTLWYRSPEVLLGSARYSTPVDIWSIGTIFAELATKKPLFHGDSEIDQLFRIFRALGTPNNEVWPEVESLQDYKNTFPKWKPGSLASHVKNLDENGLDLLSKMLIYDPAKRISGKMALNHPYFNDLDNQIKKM
T1 sequence (P14635 whole entry partner, species assumed): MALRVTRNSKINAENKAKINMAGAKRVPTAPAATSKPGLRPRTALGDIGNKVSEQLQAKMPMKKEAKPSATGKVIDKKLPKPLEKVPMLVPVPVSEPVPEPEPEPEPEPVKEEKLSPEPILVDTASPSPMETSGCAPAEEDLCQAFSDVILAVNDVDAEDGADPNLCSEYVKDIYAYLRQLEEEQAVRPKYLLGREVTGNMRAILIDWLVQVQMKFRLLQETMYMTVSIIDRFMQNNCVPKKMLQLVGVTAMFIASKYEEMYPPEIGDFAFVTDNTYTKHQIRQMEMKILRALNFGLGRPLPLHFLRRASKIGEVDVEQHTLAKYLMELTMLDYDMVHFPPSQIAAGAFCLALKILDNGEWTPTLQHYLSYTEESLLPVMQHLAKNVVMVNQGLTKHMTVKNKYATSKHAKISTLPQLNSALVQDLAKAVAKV

| SMILES | melting point [°C] | IC50 (CDC2 (p34^cdc2); 30° C., 10 min) [nM] | IC50 (IκB-α) [nM] | IC50 [1] [µM] | IC50 (B16 melanoma) [µM] | IC50 [2] [µM] | IC50 [3] [µM] | IC50 (CDC2 (p34^cdc2); [4]) [nM] | IC50 (IκB-α; [4]) [nM] |
| --- | --- | --- | --- | --- | --- | --- | --- | --- | --- |
| COc1cccc(CNc2nc(Cl)nc3c2nc(Br)n3C(C)C)c1 [Example 3, 6-(3-Methoxybenzylamino)-2-chloro-8-bromo-9-isopropylpurine] | 123 to 125 |  |  |  |  |  |  |  |  |
| CC[C@H](CO)Nc1nc(NCc2ccccc2)c2nc(F)n(C(C)C)c2n1 |  | 380 | 1200 | 3.38 | 3.2 |  |  |  |  |
| CC(C)n1c(NCCO)nc2c(NCc3ccccc3)nc(NCCCO)nc21 |  | 144000 | 153000 | > 167 | > 167 | 181 | 29.3 |  |  |
| Cn1c(S)nc2c(NCc3ccccc3)nc(NCCO)nc21 |  | 22400 | 35700 | 92.4 | 85.7 | ≥ 250 | 83.5 |  |  |
| CC(C)n1c(O)nc2c(NCc3ccccc3)nc(NCCCO)nc21 |  | 6480 | 12600 | 7.48 | 5.6 | 163 | 2.1 |  |  |
| CC(C)[C@H](CO)Nc1nc(Nc2cccc(Cl)c2)c2nc(F)n(C(C)C)c2n1 |  |  |  | 2.5 |  |  |  | 3.8 | 11 |
| CC[C@H](CO)Nc1nc(NCc2ccccc2)c2nc(NCN)n(C(C)C)c2n1 |  | 181000 | 193000 |  |  | 177 | 25.8 |  |  |
| Cn1c(NCCO)nc2c(NCc3ccccc3)nc(NCCO)nc21 |  | 125000 | 154000 | > 167 | > 167 | ≥ 250 | 169 |  |  |
| CC(C)n1c(Br)nc2c(NCc3ccccc3)nc(NCCCO)nc21 [2-(3-hydroxypropylamino)-6-benzylamino-8-bromo-9-isopropypurine] | 156 to 161 | 12900 | 24500 | 117 | 76.4 | 178 | 5.9 |  |  |
| CSc1nc2c(NCc3ccccc3)nc(NCCCO)nc2n1C(C)C [2-(3-hydroxypropylamino)-6-benzylamino-8-methylthio-9-isopropylpurine] | 64 to 67 |  |  | 68.4 | 60.6 |  |  |  |  |
| CC(C)n1c(N)nc2c(NCc3ccccc3)nc(NCCCO)nc21 |  | 8520 | 12800 | 8.52 | 6.8 | 143 | 1.59 |  |  |
| Cn1c(O)nc2c(NCc3ccccc3)nc(NCCO)nc21 |  | 13500 | 16200 | 45.5 | 56.2 | 201 | 48.6 |  |  |
